Measured values from PubChem BioAssay AID1963854 (Molecular Pharmacology Branch, DTP, NCI, 2024).

Tested on: 186277-243-T-J2-PDC complex spheroid viability
Assay: Anticancer human tumor 186277-243-T-J2-PDC patient-derived colon adenocarcinoma cell line growth inhibition [POLQ]
Conditions: for IC50: curve of first compound; for viability, T/C: stronger effect = lower value
Summary of the method: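 Patient-derived tumour cells were co-cultured with HUVEC and mesenchymal stem cells as multicellular spheroids at 37 °C. They were treated with POLQ inhibitors (novobiocin, ART-558, RP6685) alone or combined with other agents. Top concentrations were at or near clinical Cmax (otherwise 10 microM; SN-38 at 1 microM), decreasing in half-log steps.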
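Also: spheroids exposed to compounds for seven days.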
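For viability, T/C in this document: 100% = DMSO vehicle control viability.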

CC1COCCN1c1cc(C2(O)CC3CCC(C2)O3)c2cnn(-c3ccn[nH]3)c2n1 (configuration not stated) + Cc1cccc(N(C)C(=O)C2C(O)CCN2c2nc(C)cc(C(F)(F)F)c2C#N)c1
IC50 (second compound 0.0316 µM): 0.0433 µM
IC50 (second compound 0.1 µM): 0.0422 µM
IC50 (second compound 0.316 µM): 0.044 µM
IC50 (second compound 1 µM): 0.0426 µM
IC50 (second compound 3.16 µM): 0.0377 µM
IC50 (second compound 10 µM): < 0.0316 µM
viability, T/C (second compound 0.0316 µM, first compound 0.0316 µM): 64.5%
viability, T/C (second compound 0.0316 µM, first compound 0.1 µM): 11.7%
viability, T/C (second compound 0.0316 µM, first compound 0.316 µM): 6.18%
viability, T/C (second compound 0.0316 µM, first compound 1 µM): 3.85%
viability, T/C (second compound 0.0316 µM, first compound 3.16 µM): 4.2%
viability, T/C (second compound 0.0316 µM, first compound 10 µM): 4.79%
viability, T/C (second compound 0.1 µM, first compound 0.0316 µM): 63.9%
viability, T/C (second compound 0.1 µM, first compound 0.1 µM): 8.95%
viability, T/C (second compound 0.1 µM, first compound 0.316 µM): 5.9%
viability, T/C (second compound 0.1 µM, first compound 1 µM): 3.73%
viability, T/C (second compound 0.1 µM, first compound 3.16 µM): 3.97%
viability, T/C (second compound 0.1 µM, first compound 10 µM): 3.76%
viability, T/C (second compound 0.316 µM, first compound 0.0316 µM): 65.4%
viability, T/C (second compound 0.316 µM, first compound 0.1 µM): 12.1%
viability, T/C (second compound 0.316 µM, first compound 0.316 µM): 4.75%
viability, T/C (second compound 0.316 µM, first compound 1 µM): 3.38%
viability, T/C (second compound 0.316 µM, first compound 3.16 µM): 4.54%
viability, T/C (second compound 0.316 µM, first compound 10 µM): 3.64%
viability, T/C (second compound 1 µM, first compound 0.0316 µM): 63.3%
viability, T/C (second compound 1 µM, first compound 0.1 µM): 12.2%
viability, T/C (second compound 1 µM, first compound 0.316 µM): 5.42%
viability, T/C (second compound 1 µM, first compound 1 µM): 3.92%
viability, T/C (second compound 1 µM, first compound 3.16 µM): 4.12%
viability, T/C (second compound 1 µM, first compound 10 µM): 4.45%
viability, T/C (second compound 3.16 µM, first compound 0.0316 µM): 57.4%
viability, T/C (second compound 3.16 µM, first compound 0.1 µM): 9.6%
viability, T/C (second compound 3.16 µM, first compound 0.316 µM): 5.36%
viability, T/C (second compound 3.16 µM, first compound 1 µM): 3.46%
viability, T/C (second compound 3.16 µM, first compound 3.16 µM): 4.49%
viability, T/C (second compound 3.16 µM, first compound 10 µM): 4.05%
viability, T/C (second compound 10 µM, first compound 0.0316 µM): 45.9%
viability, T/C (second compound 10 µM, first compound 0.1 µM): 8.7%
viability, T/C (second compound 10 µM, first compound 0.316 µM): 4.15%
viability, T/C (second compound 10 µM, first compound 1 µM): 3.16%
viability, T/C (second compound 10 µM, first compound 3.16 µM): 4.29%
viability, T/C (second compound 10 µM, first compound 10 µM): 3.09%
